Laboratory results as given in patent US7323318B2, “Assay for distinguishing live and dead cells” (priority 2004, dated 2008).

Assays:
[1] = system: population of cells; test: Image-based live-dead cell assay using mean tubulin marker (DM1-α) intensity per cell
Excerpt: FIG. 1 presents two images of cells: a left image of a control population of cells treated with DMSO, and a right image of a test population of cells treated with the compound carbonyl cyanide 3-chlorophenylhydrazone (herein CCCP), a poison which acts on the cellular respiratory pathway. After treatment with DMSO or CCCP, the cells were fixed and stained with multiple markers. Three of these markers are shown in the image: red indicates DNA, blue indicates tubulin, and green indicates the trans-Golgi network. […] Note that individual cells are identified (whether alive or dead) by a small red area in the central region. This red area is associated with DNA in the cell nucleus. […] This is not necessarily an indication that the dead cells have increased levels of Golgi.
FIG. 2 presents a flowchart depicting one method for producing a model that can be used to determine whether an individual cell is live or dead. As shown in a block 203, the method begins by preparing the cell populations that are to be used for imaging. In certain embodiments, a sandwich culture is employed. In this preliminary operation, some cell populations are treated as controls (assumed to have a high fraction of cells that are alive) and other cell populations are treated as test samples (assumed to have a significant fraction of cells that are dead). Upon completion of treatment, cells are fixed and stained with appropriate markers. The test cells will all have been treated with a compound or other stimulus known to kill a significant percentage of the cells in a given population. Together, the control and test cell populations provide relatively large numbers of live and dead cells. The size of these populations should be large enough to provide a training set sufficient to generate a model that can reliably distinguish live cells from dead cells.
An exemplary two-step segmentation process is illustrated in FIGS. 3A and 3B. FIG. 3A presents the result of the first step. As shown there, two images (the left one for a control population treated with DMSO and the right one for a test population treated with 2.5 μM CCCP) show nuclei circled in the interiors of individual cells. Cellular DNA was stained with Hoechst […], which emits fluorescence at a wavelength selectively collected in the FIG. 3A image to permit identification of the individual nuclei. Each such nucleus is presumed to belong to a separate cell.
FIG. 3B presents the results of the second step of the cell segmentation procedure. As shown, the cell populations of FIG. 3A are again presented, but this time at the Alexa 647 channel (i.e., the bright regions in the image locate the source of radiation emitted at the wavelength of Alexa 647). […] The cell boundaries so identified are circled within the images. Each cell boundary defines a collection of pixels that are deemed to belong to a particular cell. For image processing those pixels are used extracting information about the particular cell in question.
After the boundaries of each cell have been identified, the appropriate live-dead indicator feature can be extracted on a cell-by-cell basis. See block 209. As indicated above, the intensity of a marker for tubulin (an indicator of local tubulin concentration within the cell) can be identified for each pixel in a given cell. Each cell will be characterized on the basis of its level of tubulin, whether based on an average value over all pixels in the cell, a maximum or minimum value within the cell, or some other indicator of tubulin quantity. In a preferred embodiment, the mean tubulin marker intensity is calculated over the pixels in a cell and the resulting value is employed as the live-dead indicator feature.
Additional images are presented in FIG. 3C, highlighting the marker DM1-α for tubulin. […] Note that live and dead cells can be usually distinguished by visual inspection. […]

[2] = system: live cells and dead cells; test: Total cell area in live and dead cells (pixel count within segmented boundary); format: cell-based; settings: FIG. 6B
Protocol: The area was determined from a pixel count within the boundary determined by segmentation. […] A simple consideration of the average cell area for all cells (including live cells and dead cells) would likely mask the fact that the higher concentrations of the drug cause dead cells to become progressively larger. The effect of the live cells masks, somewhat, the effect on the dead cells. […] Note that the average area of the live and dead cells together is shown as lines 611 in FIG. 6B. Note also that, as with the plot in FIG. 6A, the live cells were discriminated from dead cells using the mean DM1-α intensity of each cell.

[3] = system: TGN (trans-Golgi network); settings: FIG. 6C; increasing concentrations
Excerpt: As with FIGS. 6A and 6B, the live-dead discrimination in FIG. 6C was made using mean DM1-α intensity (per cell).

Compound: N#CC(C#N)=NNc1cccc(Cl)c1 [CCCP, carbonyl cyanide 3-chlorophenylhydrazone]
- number of cells with significant tubulin concentration versus DMSO control ([1]; FIG. 1, fixed and stained cells, tubulin marker (blue)): far fewer cells with significant tubulin concentration
- percentage of dead cells versus DMSO control population ([1]; FIG. 3C, 2.5 μM CCCP, DM1-α tubulin channel): far higher percentage of dead cells
- mean tubulin marker intensity per cell (histogram) versus control cells ([1]; FIG. 4B, 0.625 μM to 5 μM CCCP for 24 hours, test cells pooled with control cells): a relatively large fraction of the cells have a mean tubulin marker intensity well below that associated with the control cells
- concentration at which the number of live cells begins to decrease ([1]; FIG. 6A, normalized concentration, decrease at roughly the same rate as the dead cell increase): about 0.5 μM
- concentration at which the number of dead cells begins to increase dramatically ([1]; FIG. 6A, normalized concentration, live/dead discriminated by mean DM1-α intensity, samples of around 800 cells): about 0.5 μM
- total number of cells (number of objects, DNA spots) across concentrations ([1]; FIG. 6A, three samples of around 800 cells each): remain approximately constant

Compound: O=C(O)Cc1ccccc1Nc1c(Cl)cccc1Cl [diclofenac]
- total area of the live cells ([2]; beginning at approximately the same concentration (arbitrary 100)): gradually decreased
- area of the dead cells ([2]; from the arbitrary concentration of 100 in the plot): begins to increase rather dramatically

Compound: Nc1c2c(nc3ccccc13)CCCC2 [tacrine]
- Golgi (TGN) marker intensity signal in dead cells [3]: relatively minimal affect
- mean Golgi (TGN) marker intensity signal in live cells [3]: dramatically increase
